According to ChEMBL document CHEMBL3991601, “The target landscape of clinical kinase drugs” (Science, 2017):
Where a name gives a salt, the structure may show the parent alone. The source made the active and inactive calls.

How the values were obtained:
[1] = molecular target: Calcium/calmodulin-dependent protein kinase type II subunit gamma (Homo sapiens, UniProt Q13555)
[2] = molecular target: Serine/threonine-protein kinase MRCK beta (Homo sapiens, UniProt Q9Y5S2)
Ephrin type-B receptor 6 = molecular target: T1, Ephrin type-B receptor 6 (Homo sapiens, UniProt O15197)
T1 sequence (O15197 whole entry): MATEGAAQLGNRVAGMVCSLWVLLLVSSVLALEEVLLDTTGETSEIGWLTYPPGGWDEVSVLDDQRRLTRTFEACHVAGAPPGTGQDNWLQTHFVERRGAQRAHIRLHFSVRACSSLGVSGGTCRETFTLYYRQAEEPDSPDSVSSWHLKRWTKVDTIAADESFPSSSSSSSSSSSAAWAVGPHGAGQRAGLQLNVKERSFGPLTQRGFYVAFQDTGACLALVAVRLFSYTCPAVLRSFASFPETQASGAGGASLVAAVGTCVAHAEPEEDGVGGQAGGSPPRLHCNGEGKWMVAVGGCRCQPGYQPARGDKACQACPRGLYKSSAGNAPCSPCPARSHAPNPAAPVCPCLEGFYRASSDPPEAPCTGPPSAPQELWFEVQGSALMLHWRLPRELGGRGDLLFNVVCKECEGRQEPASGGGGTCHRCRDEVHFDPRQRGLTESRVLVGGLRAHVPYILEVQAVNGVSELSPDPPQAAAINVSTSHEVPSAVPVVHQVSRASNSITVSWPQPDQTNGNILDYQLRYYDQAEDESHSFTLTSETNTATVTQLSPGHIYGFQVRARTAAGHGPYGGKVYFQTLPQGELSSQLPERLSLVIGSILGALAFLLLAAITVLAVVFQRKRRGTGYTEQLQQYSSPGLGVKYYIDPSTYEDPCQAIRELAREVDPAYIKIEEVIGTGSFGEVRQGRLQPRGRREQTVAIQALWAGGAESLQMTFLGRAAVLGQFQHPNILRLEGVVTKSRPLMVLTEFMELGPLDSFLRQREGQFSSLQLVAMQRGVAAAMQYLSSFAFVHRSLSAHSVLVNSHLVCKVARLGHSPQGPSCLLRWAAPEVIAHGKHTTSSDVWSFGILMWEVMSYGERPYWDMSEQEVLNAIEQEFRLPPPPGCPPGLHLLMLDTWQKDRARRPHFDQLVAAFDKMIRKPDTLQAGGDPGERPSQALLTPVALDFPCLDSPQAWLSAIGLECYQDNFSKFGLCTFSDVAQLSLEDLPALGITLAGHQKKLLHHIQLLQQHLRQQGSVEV

[3] = molecular target: T2, RNA cytidine acetyltransferase (Homo sapiens, UniProt Q9H0A0)
T2 sequence (Q9H0A0 whole entry): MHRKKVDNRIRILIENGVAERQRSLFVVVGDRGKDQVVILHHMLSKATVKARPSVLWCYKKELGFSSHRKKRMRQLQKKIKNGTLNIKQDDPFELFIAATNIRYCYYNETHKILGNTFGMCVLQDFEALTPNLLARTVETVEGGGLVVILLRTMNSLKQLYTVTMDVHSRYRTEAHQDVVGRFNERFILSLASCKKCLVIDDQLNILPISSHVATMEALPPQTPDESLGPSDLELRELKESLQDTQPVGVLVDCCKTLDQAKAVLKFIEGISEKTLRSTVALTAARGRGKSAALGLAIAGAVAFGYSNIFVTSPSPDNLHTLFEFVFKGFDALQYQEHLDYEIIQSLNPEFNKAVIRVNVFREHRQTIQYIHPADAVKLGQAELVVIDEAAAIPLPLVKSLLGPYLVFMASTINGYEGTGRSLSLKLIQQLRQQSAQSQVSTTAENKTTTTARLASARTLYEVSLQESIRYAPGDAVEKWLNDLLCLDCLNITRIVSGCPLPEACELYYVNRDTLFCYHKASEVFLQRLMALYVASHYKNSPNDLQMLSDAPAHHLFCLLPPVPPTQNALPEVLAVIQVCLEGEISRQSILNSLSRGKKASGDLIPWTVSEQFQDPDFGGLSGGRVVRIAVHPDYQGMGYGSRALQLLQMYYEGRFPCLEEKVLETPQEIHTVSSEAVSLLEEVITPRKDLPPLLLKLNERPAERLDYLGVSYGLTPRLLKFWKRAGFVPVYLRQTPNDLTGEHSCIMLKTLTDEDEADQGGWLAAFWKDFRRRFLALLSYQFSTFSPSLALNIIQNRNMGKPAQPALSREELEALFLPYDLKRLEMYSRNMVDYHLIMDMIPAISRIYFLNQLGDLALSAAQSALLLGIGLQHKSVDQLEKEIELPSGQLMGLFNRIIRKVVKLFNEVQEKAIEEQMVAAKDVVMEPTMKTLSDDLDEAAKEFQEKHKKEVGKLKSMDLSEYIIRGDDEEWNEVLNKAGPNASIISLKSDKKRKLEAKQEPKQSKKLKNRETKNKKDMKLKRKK

[4] = molecular target: Serine/threonine-protein kinase PAK 4 (Homo sapiens, UniProt O96013)
[5] = molecular target: Structural maintenance of chromosomes protein 2 (Homo sapiens, UniProt O95347)
Note: in the data inactive means no Kd found up to 30 µM.

Sequence of Structural maintenance of chromosomes protein 2 (O95347 whole entry): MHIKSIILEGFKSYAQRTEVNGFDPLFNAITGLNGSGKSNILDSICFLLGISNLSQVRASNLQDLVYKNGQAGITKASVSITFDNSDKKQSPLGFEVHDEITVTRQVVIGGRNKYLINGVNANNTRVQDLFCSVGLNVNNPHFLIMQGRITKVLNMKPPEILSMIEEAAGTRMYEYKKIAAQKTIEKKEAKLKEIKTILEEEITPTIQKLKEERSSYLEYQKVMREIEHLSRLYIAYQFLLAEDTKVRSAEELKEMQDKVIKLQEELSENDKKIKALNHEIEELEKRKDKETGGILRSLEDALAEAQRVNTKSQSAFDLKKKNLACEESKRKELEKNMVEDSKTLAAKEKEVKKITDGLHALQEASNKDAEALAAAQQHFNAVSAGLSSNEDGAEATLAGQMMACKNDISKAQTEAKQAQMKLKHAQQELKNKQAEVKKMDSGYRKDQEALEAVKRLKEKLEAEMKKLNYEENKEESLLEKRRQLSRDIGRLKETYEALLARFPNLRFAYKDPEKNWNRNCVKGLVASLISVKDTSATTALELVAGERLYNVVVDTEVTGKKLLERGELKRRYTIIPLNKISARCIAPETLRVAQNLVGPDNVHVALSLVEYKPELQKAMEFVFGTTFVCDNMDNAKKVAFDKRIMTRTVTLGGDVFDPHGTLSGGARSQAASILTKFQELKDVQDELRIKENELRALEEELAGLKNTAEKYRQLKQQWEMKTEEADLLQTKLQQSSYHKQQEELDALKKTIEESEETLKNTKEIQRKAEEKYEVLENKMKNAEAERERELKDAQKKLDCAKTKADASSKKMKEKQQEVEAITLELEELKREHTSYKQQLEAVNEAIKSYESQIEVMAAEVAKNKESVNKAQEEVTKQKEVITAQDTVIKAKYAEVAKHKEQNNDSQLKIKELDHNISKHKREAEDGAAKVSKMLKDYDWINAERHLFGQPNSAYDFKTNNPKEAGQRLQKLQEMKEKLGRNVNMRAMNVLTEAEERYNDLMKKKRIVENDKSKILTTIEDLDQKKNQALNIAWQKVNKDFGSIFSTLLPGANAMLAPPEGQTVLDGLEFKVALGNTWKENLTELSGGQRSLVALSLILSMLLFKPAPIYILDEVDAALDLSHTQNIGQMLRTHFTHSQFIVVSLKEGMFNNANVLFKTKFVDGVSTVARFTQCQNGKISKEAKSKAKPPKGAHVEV
Sequence of Serine/threonine-protein kinase PAK 4 (O96013 whole entry): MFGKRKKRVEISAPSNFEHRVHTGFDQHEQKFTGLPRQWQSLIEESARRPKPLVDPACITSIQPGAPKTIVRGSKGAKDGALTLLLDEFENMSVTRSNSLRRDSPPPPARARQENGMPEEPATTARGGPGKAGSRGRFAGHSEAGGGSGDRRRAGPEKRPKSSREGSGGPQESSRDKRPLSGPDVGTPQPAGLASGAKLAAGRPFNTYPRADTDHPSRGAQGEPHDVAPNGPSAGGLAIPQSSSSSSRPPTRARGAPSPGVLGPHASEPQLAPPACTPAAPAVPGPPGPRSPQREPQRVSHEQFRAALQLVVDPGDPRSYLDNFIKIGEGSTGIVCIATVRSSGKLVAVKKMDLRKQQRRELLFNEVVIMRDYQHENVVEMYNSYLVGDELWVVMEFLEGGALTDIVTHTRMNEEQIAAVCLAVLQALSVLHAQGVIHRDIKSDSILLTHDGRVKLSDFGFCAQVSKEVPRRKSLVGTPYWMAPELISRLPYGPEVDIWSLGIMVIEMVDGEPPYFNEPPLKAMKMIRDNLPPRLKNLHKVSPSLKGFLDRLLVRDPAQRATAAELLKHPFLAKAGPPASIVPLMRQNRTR
Sequence of Calcium/calmodulin-dependent protein kinase type II subunit gamma (Q13555 whole entry): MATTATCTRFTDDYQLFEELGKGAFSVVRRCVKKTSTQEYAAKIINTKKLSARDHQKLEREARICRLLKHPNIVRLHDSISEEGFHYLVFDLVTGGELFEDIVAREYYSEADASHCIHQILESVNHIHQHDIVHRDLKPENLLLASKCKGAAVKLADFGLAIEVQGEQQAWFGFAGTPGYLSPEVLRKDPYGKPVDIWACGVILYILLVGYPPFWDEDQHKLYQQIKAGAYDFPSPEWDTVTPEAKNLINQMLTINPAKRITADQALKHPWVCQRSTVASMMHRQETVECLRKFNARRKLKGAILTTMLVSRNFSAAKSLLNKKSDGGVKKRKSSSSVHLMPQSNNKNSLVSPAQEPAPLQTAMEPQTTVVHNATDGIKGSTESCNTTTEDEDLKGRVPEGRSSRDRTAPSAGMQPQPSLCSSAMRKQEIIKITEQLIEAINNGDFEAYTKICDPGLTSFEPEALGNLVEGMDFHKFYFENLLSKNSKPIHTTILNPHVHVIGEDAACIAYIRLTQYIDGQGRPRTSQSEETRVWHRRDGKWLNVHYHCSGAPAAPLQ
Sequence of Serine/threonine-protein kinase MRCK beta (Q9Y5S2 whole entry): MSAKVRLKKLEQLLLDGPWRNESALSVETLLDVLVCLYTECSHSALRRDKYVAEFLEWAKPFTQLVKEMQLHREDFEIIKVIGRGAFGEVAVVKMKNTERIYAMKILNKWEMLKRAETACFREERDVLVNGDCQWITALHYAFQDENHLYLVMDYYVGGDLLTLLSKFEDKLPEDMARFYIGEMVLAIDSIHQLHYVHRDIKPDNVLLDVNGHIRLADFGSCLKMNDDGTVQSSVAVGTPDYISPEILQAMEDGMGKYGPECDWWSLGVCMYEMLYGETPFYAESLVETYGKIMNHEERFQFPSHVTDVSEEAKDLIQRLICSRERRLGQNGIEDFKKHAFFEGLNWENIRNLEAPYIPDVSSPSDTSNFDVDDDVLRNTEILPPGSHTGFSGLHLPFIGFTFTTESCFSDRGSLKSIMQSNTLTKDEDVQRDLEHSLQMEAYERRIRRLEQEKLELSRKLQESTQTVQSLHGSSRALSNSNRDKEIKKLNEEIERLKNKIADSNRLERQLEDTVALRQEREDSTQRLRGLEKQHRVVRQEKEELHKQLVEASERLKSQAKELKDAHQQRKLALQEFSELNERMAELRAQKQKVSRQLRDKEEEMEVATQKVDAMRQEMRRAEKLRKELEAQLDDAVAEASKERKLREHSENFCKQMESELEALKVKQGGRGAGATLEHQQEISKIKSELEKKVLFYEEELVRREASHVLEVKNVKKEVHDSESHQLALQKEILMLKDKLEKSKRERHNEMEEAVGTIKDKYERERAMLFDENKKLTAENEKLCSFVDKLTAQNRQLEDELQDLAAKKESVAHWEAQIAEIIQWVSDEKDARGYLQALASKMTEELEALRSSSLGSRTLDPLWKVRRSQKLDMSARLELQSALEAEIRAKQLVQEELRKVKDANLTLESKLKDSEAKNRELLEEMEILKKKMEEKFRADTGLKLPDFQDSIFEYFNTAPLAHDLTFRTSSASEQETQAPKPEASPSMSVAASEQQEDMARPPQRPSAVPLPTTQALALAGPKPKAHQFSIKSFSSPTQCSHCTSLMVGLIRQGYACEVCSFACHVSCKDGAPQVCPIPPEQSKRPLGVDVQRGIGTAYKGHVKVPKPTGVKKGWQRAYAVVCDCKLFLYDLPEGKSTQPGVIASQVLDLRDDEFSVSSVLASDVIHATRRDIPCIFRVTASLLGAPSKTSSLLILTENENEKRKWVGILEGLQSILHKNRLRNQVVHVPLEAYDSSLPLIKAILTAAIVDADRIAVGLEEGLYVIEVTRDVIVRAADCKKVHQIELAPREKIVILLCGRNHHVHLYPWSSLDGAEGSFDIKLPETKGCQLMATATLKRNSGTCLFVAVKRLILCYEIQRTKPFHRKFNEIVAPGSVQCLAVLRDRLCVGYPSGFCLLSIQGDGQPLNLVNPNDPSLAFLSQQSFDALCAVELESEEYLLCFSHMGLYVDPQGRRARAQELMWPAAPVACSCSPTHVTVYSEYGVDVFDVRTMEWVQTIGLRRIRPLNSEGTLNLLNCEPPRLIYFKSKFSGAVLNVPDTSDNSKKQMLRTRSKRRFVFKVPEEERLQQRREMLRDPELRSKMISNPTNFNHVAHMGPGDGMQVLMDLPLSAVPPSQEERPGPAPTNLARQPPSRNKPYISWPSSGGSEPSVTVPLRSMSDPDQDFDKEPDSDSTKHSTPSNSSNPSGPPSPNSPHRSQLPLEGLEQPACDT

| Compound | Kd [1] | Kd [2] | Kd (Ephrin type-B receptor 6) | Kd [3] | Kd [4] | Kd [5] |
| --- | --- | --- | --- | --- | --- | --- |
| Cc1cc(Nc2ncnc3ccc(NC4=NC(C)(C)CO4)cc23)ccc1Oc1ccn2ncnc2c1 [TUCATINIB] | > 30 µM (inactive) | > 30 µM (inactive) | > 30 µM (inactive) | > 30 µM (inactive) | > 30 µM (inactive) | > 30 µM (inactive) |
| CCS(=O)(=O)c1cccc(-c2cc(C(=O)NC3CCN(C)CC3)c(C)c3[nH]c4ncc(C)cc4c23)c1 [TAK-901] | > 30 µM (inactive) | > 30 µM (inactive) | 0.451 µM | > 30 µM (inactive) | > 30 µM (inactive) | > 30 µM (inactive) |
| O=C(Cc1ccc(-c2ccc(OCCN3CCOCC3)cc2)cn1)NCc1ccccc1 [TIRBANIBULIN] | > 30 µM (inactive) | > 30 µM (inactive) | > 30 µM (inactive) | > 30 µM (inactive) | > 30 µM (inactive) | > 30 µM (inactive) |
| COc1cc2ncnc(Oc3cccc(NC(=O)Nc4cc(C(C)(C)C(F)(F)F)on4)c3)c2cc1OC [CEP-32496] | > 30 µM (inactive) | > 30 µM (inactive) | > 30 µM (inactive) | > 30 µM (inactive) | > 30 µM (inactive) | > 30 µM (inactive) |
| CCS(=O)(=O)N1CCN(c2ccc(Nc3ncc(C(N)=O)c(NC4CC4)n3)cc2)CC1 [Cerdulatinib Hydrochloride] | > 30 µM (inactive) | > 30 µM (inactive) | > 30 µM (inactive) | > 30 µM (inactive) | 0.851 µM (active) | > 30 µM (inactive) |
| Cc1cc(C(=O)NOCCO)c(Nc2ccc(I)cc2F)n(C)c1=O [AZD-8330] | > 30 µM (inactive) | > 30 µM (inactive) | > 30 µM (inactive) | > 30 µM (inactive) | > 30 µM (inactive) | > 30 µM (inactive) |
| C#Cc1cccc(Nc2ncnc3cc(OC)c(OCCCCCCC(=O)NO)cc23)c1 [CUDC-101] | > 30 µM (inactive) | > 30 µM (inactive) | > 30 µM (inactive) | > 30 µM (inactive) | > 30 µM (inactive) | > 30 µM (inactive) |
| NC1(c2ccc(-c3nc4ccn5c(=O)[nH]nc5c4cc3-c3ccccc3)cc2)CCC1 [MK-2206] | > 30 µM (inactive) | > 30 µM (inactive) | > 30 µM (inactive) | > 30 µM (inactive) | > 30 µM (inactive) | > 30 µM (inactive) |
| Cc1nc2cc(-c3nn(C(C)C)c4ncnc(N)c34)ccc2o1 | > 30 µM (inactive) | > 30 µM (inactive) | > 30 µM (inactive) | > 30 µM (inactive) | > 30 µM (inactive) | > 30 µM (inactive) |
| O=C1NC(=O)[C@@H](c2cn3c4c(cccc24)CCC3)[C@@H]1c1c[nH]c2ccccc12 [TIVANTINIB] | > 30 µM (inactive) | > 30 µM (inactive) | > 30 µM (inactive) | > 30 µM (inactive) | > 30 µM (inactive) | > 30 µM (inactive) |
| CO[C@H]1C[C@@H]2CC[C@@H](C)[C@@](O)(O2)C(=O)C(=O)N2CCCC[C@H]2C(=O)O[C@H]([C@H](C)C[C@@H]2CC[C@@H](OP(C)(C)=O)[C@H](OC)C2)CC(=O)[C@H](C)/C=C(\C)[C@@H](O)[C@@H](OC)C(=O)[C@H](C)C[C@H](C)/C=C/C=C/C=C/1C [RIDAFOROLIMUS] | > 30 µM (inactive) | > 30 µM (inactive) | > 30 µM (inactive) | > 30 µM (inactive) | > 30 µM (inactive) | > 30 µM (inactive) |
